{"source": "patent US5599974A", "about": "“Aldehydic agents for allosteric modification of hemoglobin” (Center for Innovative Technology, priority 1994, dated 1997)", "key": {"human hemoglobin (HbA)": {"biological_target": "T1, human hemoglobin (HbA) (Homo sapiens, UniProt P69905)", "T1 construct": "hemoglobin solution", "experiment": "Oxygen equilibrium studies of hemoglobin solutions (Hem-O-Scan oxygen dissociation curves)", "format": "biochemical", "settings": "hemoglobin solution", "from_the_text": "In blood, hemoglobin is in equilibrium between two allosteric structures. In the \"T\" (for tense) state, hemoglobin is de-oxygenated. In the \"R\" (for relaxed) state, hemoglobin is oxygenated. An oxygen equilibrium curve can be scanned using well known equipment such as the Aminco™ Hem-o-scan to evaluate the affinity and degree of cooperativity (allosteric action) of hemoglobin. In the scan, the Y-axis plots the percent of hemoglobin oxygenation and the X-axis plots the partial pressure of oxygen in millimeters of mercury (mm Hg). If a horizontal line is drawn from the 50% oxygen saturation point to the scanned curve and a vertical line is drawn from the intersection point of the horizontal line with the curve to the partial pressure X-axis, a value commonly known as the P50 is determined. This is the pressure when the hemoglobin is 50% saturated with oxygen. By comparing the P50 value for treated hemoglobin to the P50 value for untreated normal adult human hemoglobin (HbA) under physiological conditions (i.e., 37° C., pH=7.4, and partial carbon dioxide pressure of 40 mm Hg), the degree of allosteric modification can be determined. When the P50 value for treated hemoglobin is lower than for HbA, a high oxygen affinity hemoglobin is indicated and the curve is said to be \"left-shifted\". Conversely, when the P50 value for treated hemoglobin is higher than for HbA, a low oxygen affinity hemoglobin is indicated and the curve is said to be \"right-shifted\".\nIn the oxygen equilibrium studies, the HbA was further purified by dialysis against pH 8.6. Tris buffer (50 mM, containing 40 mg EDTA/L) to remove any residual A2 hemoglobin. The pure HbA fraction was concentrated by using a Schleicher and Schuell colloidion bag apparatus, available from Schleicher and Schuell, Inc., with HEPES buffer (50 mM, pH 7.4) as the exchange buffer. The Hb concentration was determined by using the cyanmet method. The Hb concentration at this point was usually found to be around 35 g% (approximately 5.4 mM). Less than 5% methemoglobin was noted even after several days at 4° C. Oxygen dissociation curves were recorded on an AMINCO Hem-0-Scan oxygen dissociation analyzer available from Travenol Laboratories.\nAll compounds were dissolved in 50 mM HEPES buffer, pH 7.4, to give 20 mM of drug solution. The Hb (5.4 mM, in HEPES, pH 7.4) and the test compounds (20 mM) were mixed in 1:1 volume ratio (50μL of Hb+50μL of compound solution) to give final concentrations of 2.7 mM and 10mM, respectively (a molar ratio of test compound to hemoglobin of approximately 4:1). A control experiment was prepared by the addition of 50 μL of Hb to 50 μL of HEPES buffer. The mixtures were incubated at 4° C. for two hours before running the oxygen dissociation curves."}, "whole blood": {"system": "whole blood", "experiment": "Whole-blood studies: effect on the oxygen affinity of whole blood", "format": "cell-based"}, "HbA": {"biological_target": "T2, HbA (Homo sapiens, UniProt P69905)", "T2 construct": "co-crystals with compounds", "experiment": "X-ray diffraction analysis of HbA/drug complexes (difference electron-density maps)", "format": "binding", "settings": "HbA tetramer/drug molar ratio 1:5 (TB17 1:10), Schiff base reduced, deoxygenated crystals", "protocol": "Reaction of the drug compounds with HbA, crystallization and X-ray data collection of the HbA/drug complexes were performed according to the procedures of Wireko et al., Proc. Natl. Acad. Sci. USA, 1991, 88, 2209, which is herein incorporated by reference, with some slight modifications. Freshly prepared solutions of the synthesized compounds in potassium phosphate buffer were incubated at oxy HbA tetramer/drug molar ratios of 1:5 or 1:10 for at least 24 hours. Sodium cyanoborohydrie in phosphate buffer was added in 10- to 50-fold molar excess of HbA tetramer to reduce the Schiff's base adduct for at least 24 hours. The deoxygenated HbA/compound complexes were set up for crystallizations following the procedures described in Perutz et al., Crys. Growth, 1968, 2, 54, which is herein incorporated by reference, with some slight modifications. X-ray quality crystals for all complexes were obtained after three to seven days. Crystals of TB19 (discussed below) grown with HbA incubated and reduced under deoxygenated conditions was also used for data collection.\nX-ray diffraction data for the MS2 complex (discussed below) was collected using a Rigaku AFC5R rotating anode diffractometer to a resolution of 4Å. All hk±1 reflections and their Friedel pairs were collected. One crystal, dimensions 0.3 to 1.2 mm was used for collection. Diffraction data for the rest of the complexes were collected with a Rigaku AFC5R rotating anode diffractometer equipped with an R-axis IIC image plate system, all to a resolution of 1.94A. Crystals of linear dimensions 0.2 to 0.5 mm were used. Data reduction, structure solution and calculation of Fourier difference electron-density maps were as described in Wireko et al., Proc. Natl. Acad. Sci. USA, 1991, 88, 2209.\nModels of the compounds created with MMOD and minimized with MM2 force field were fitted to the electron-density by using FRODO on an EVANS and SUTHERLAND PS390 graphic station.\nX-ray diffraction analyses were used to study several of the new drug complexes including MS1, MS2, TB8, TB10, TB17, TB19, TB32, TB36, TB62, and TB63. The difference electron-density maps of all complexes discussed are that of the HbA tetramer/drug molar ratio of 1:5, except TB17 which is 1:10. All drug molecules contain at least two functionalities, an aldehyde and a carboxylate, common to all of them. […] The only exception was MS2 where only one of the carboxylate oxygens was involved in the salt bridge interaction. The above binding site, which is common to all of the complexes, will be referred to as the α-cleft binding site. Some of the above drug compounds have additional functional groups which are also involved in additional interaction with other HbA residues, including hydrogen bonding, van der Waals interaction, and a second covalent bonding.\nAll complexes have two molecules of the drug compounds bound at the above-mentioned α-cleft site and are related by the two fold noncrystallographic axis. These sites are further noted as the α1-cleft site (Val-1α1 binding site), and the α2-cleft site (Val-1α2 binding site). In all complexes, the electron density at the α2-cleft site were slightly bigger and better defined than the electron density at the α1-cleft site. In addition to the binding at the α-cleft site, some of the drug compounds also bind to other secondary sites, including other sites in the α-cleft water cavity, the β-cleft water cavity located at Val-1β, and the Hb polymer contact site located near the residues His-116β and His-117β."}}}
{"compound": "O=Cc1ccc(OCCCCOc2ccc(C=O)cc2C(=O)O)c(C(=O)O)c1", "note": "[TB19, 1,4-Bis(2-carboxy-4-formylphenoxy)-butane]", "values": [{"measurement": "direction of shift of the oxygen equilibrium curve", "setting": "human hemoglobin (HbA)", "result": "right shift"}, {"measurement": "P50 D (aver.)", "setting": "human hemoglobin (HbA); Hb 2.7 mM, compound 10 mM (approx. 4:1), 50 mM HEPES pH 7.4, incubated at 4° C. for two hours", "result": 42.0, "unit": "mm Hg"}, {"measurement": "ΔP50 (P50 D - P50 C)", "setting": "human hemoglobin (HbA); Hb 2.7 mM, compound 10 mM, 50 mM HEPES pH 7.4, positive = right shift", "result": 20.0, "unit": "mm Hg"}, {"measurement": "P50 D (aver.)", "setting": "whole blood; heparinized whole blood mixed 1:1 with test compound solution, equilibrated 1 hour at 37° C., P50 C 25.0", "result": 19.5, "unit": "mm Hg"}, {"measurement": "direction of shift of the oxygen equilibrium curve", "setting": "whole blood; whole blood", "result": "left shift"}, {"measurement": "ΔP50 D", "setting": "whole blood; whole blood, 1 hour at 37° C., P50 D - P50 C", "result": -5.5, "unit": "mm Hg"}, {"measurement": "binding sites in HbA seen in the difference electron-density map", "setting": "HbA", "result": "binding exclusively at the two symmetry-relatedα-cleft sites"}]}
